Results on eleven compounds are retold here after publication PMC6270326, “The Novel [4,5-e][1,3]Diazepine-4,8-dione and Acyclic Carbamoyl Imino-Ureido Derivatives of Imidazole: Synthesis, Anti-Viral and Anti-Tumor Activity Evaluations” (Molecules, 2013).

Series [1] concerns HeLa (cervical carcinoma). Kind of series: Proliferation assay (MTT), HeLa. The settings on record: Homo sapiens, 72 h incubation, read-out: Tumor cell growth IC50, HeLa. Format: cell-based. How it is done: (§1) The cell lines HeLa (cervical carcinoma), SW620 (colorectal adenocarcinoma, metastatic), MCF-7 (breast epithelial adenocarcinoma, metastatic), HepG2 (hepatocellular carcinoma) and BJ (normal diploid human fibroblasts), were cultured as monolayers and maintained in Dulbecco’s modified Eagle medium (DMEM) supplemented with 10% fetal bovine serum (FBS), 2 mM L-glutamine, 100 U/mL penicillin and 100 μg/mL streptomycin in a humidified atmosphere with 5% CO2 at 37 °C.
(§2) The panel cell lines were inoculated onto a series of standard 96-well microtiter plates on day 0, at 3,000 to 5,000 cells per well according to the doubling times of specific cell line. Test agents were then added in 10-fold dilutions (0,01 to 100 µM) and incubated for further 72 h. Working dilutions were freshly prepared on the day of testing in the growth medium. The solvent (DMSO) was also tested for eventual inhibitory activity by adjusting its concentration to be the same as in the working concentrations (DMSO concentration never exceeded 0.1%). After 72 h of incubation, the cell growth rate was evaluated by performing the MTT assay: experimentally determined absorbance values were transformed into a cell percentage growth (PG) using the formulas proposed by NIH and described previously. This method directly relies on control of untreated cells at the day of substances addition because it compares the growth of treated cells with the growth of untreated cells in control wells on the same plate—the results are therefore a percentile difference from the calculated expected value. […] If, however, all of the tested concentrations produce PGs exceeding the respective reference level of effect (e.g., PG value of 50) for a given cell line, the highest tested concentration is assigned as the default value (in the screening data report that default value is preceded by a “>” sign). Each test point was performed in quadruplicate in three individual experiments. The results were statistically analyzed (ANOVA, Tukey post-hoc test at p < 0.05). Finally, the effects of the tested substances were evaluated by plotting the mean percentage growth for each cell type in comparison to control on dose response graphs.

In series [2] the test system is MCF-7 (breast epithelial adenocarcinoma, metastatic). Kind of series: Proliferation assay (MTT), MCF-7. The format is cell-based. The settings on record: Homo sapiens, MCF7, 72 h incubation, read-out: Tumor cell growth IC50, MCF-7. On the procedure: as §1, §2
Series [3] concerns BJ (normal diploid human fibroblasts). Kind of series: Proliferation assay (MTT), BJ normal fibroblasts. The format is cell-based. The settings on record: for IC50: Fibroblast, BJ normal human skin fibroblasts, 72 h incubation, MTT, read-out: Cell growth IC50, BJ; for Cytotoxicity on human normal fibroblasts (BJ): in words. On the procedure:
as §1, §2

The test system of series [4] is SW620 (colorectal adenocarcinoma, metastatic). Description: Proliferation assay (MTT), SW620. Format: cell-based. The settings on record: Homo sapiens, SW-620, 72 h incubation, read-out: Tumor cell growth IC50, SW620. On the procedure: as §1, §2
Series [5] deals with HepG2 (hepatocellular carcinoma). Kind of series: Proliferation assay (MTT), HepG2. Format: cell-based. The settings on record: Homo sapiens, 72 h incubation, read-out: Tumor cell growth IC50, HepG2. On the procedure:
as §1, §2

For series [6], the system named is HeLa, SW620, MCF-7, HepG2 and BJ cell lines. Description: Proliferation assay (MTT), whole panel of cell lines. Format: cell-based, human. The settings on record: in words. How it is done:
as §1
The panel cell lines were inoculated onto a series of standard 96-well microtiter plates on day 0, at 3,000 to 5,000 cells per well according to the doubling times of specific cell line. Test agents were then added in 10-fold dilutions (0,01 to 100 µM) and incubated for further 72 h. […] After 72 h of incubation, the cell growth rate was evaluated by performing the MTT assay: experimentally determined absorbance values were transformed into a cell percentage growth (PG) using the formulas proposed by NIH and described previously. This method directly relies on control of untreated cells at the day of substances addition because it compares the growth of treated cells with the growth of untreated cells in control wells on the same plate—the results are therefore a percentile difference from the calculated expected value. […] The results were statistically analyzed (ANOVA, Tukey post-hoc test at p < 0.05). […]

In the case of `CN(C)CCCn1cnc(C(N)=O)c1C(N)=O` [Compound 8, 1-(3-Dimethylamino-propyl)-1H-imidazole-4,5-dicarboxylic acid diamide], the melting point lay in the range of 205 to 210 °C. Also, in series [1], the IC50 was greater than 100 µM. For the same compound, the IC50 in series [2] is greater than 100 µM. In addition, the 50% inhibitory concentration (IC50) in series [3] was greater than 100 µM. The IC50 in series [4] was greater than 100 µM. In addition, the IC50 in series [5] is greater than 100 µM.
Consider `COC(=O)c1ncn(CCN2CCCCC2)c1C(=O)OC` [Compound 2, 1-(2-Piperidin-1-yl-ethyl)-1H-imidazole-4,5-dicarboxylic acid dimethyl ester], for which the IC50 in series [1], in series [2], in series [3], in series [4] and in series [5] was greater than 100 µM in each case.
With `COC(=O)c1ncn(CCN2CCCC2)c1C(=O)OC` [Compound 3, 1-(2-Pyrrolidin-1-yl-ethyl)-1H-imidazole-4,5-dicarboxylic acid dimethyl ester], the IC50 in series [1] was 9.5 µM; in series [2] it was greater than 100 µM; in series [3], greater than 100 µM; in series [4], greater than 100 µM; in series [5], greater than 100 µM. In addition, the “Cytotoxicity on human normal fibroblasts (BJ)” value (from here on “Cytotoxicity”) in series [3] is “no apparent cytotoxicity”.
Regarding `COC(=O)c1ncn(CCCN(C)C)c1C(=O)OC` [Compound 4, 1-(3-Dimethylamino-propyl)-1H-imidazole-4,5-dicarboxylic acid dimethyl ester], the IC50 in series [1], in series [2], in series [3], in series [4] and in series [5] was greater than 100 µM throughout.
Compound `N=c1[nH]c(=O)c2ncn(CCN3CCCCC3)c2c(=O)[nH]1` [Compound 10, 6-Imino-1-(2-piperidin-1-yl-ethyl)-6,7-dihydro-1H,5H-1,3,5,7-tetraaza-azulene-4,8-dione] returned a melting point greater than 300 °C. The IC50 in series [1] was 31 µM. Besides, in series [6], the “Antiproliferative effect on tested cell lines” value is on record as “moderate non-selective antiproliferative activity”. In addition, in series [2], the IC50 was greater than 100 µM. The IC50 in series [3] is greater than 100 µM. The IC50 in series [4] came to 31 µM. Besides, the IC50 in series [5] turned out to be 41 µM.
`NC(=O)c1ncn(CCN2CCCCC2)c1C(N)=O` [Compound 6, 1-(2-Piperidin-1-il-etil)-1H-imidazol-4,5-diamide] returned a melting point of 200 to 201 °C. Moreover, the 50% inhibitory concentration (IC50) in series [1] was greater than 100 µM. Also, the IC50 in series [2] is greater than 100 µM. In series [3], the IC50 was greater than 100 µM. Besides, in series [4], the IC50 was greater than 100 µM. For the same compound, in series [5], the half-maximal inhibitory concentration (IC50) was greater than 100 µM.
The compound `COC(=O)c1ncn(CCN2CCOCC2)c1C(=O)NC(=N)NC(=O)Nc1ccccc1F` [Compound 12, 5-({[3-(2-Fluoro-phenyl)-ureido]-imino-methyl}-carbamoyl)-1-(2-morpholin-4-yl-ethyl)-1H-imidazole-4-carboxylic acid methyl ester] came in with a melting point greater than 164 °C. For the same compound, the IC50 in series [1] is greater than 100 µM. For the same compound, the IC50 in series [2] was greater than 100 µM. Also, the IC50 in series [3] was greater than 100 µM. Besides, the IC50 in series [4] is greater than 100 µM. Also, in series [5], the 50% inhibitory concentration (IC50) was greater than 100 µM.
Consider `N=c1[nH]c(=O)c2ncn(CCN3CCCC3)c2c(=O)[nH]1` [Compound 11, 6-Imino-1-(2-pyrrolidin-1-yl-ethyl)-6,7-dihydro-1H,5H-1,3,5,7-tetraaza-azulene-4,8-dione], for which the 50% inhibitory concentration (IC50) was greater than 100 µM in series [1]; greater than 100 µM in series [2]; greater than 100 µM in series [3]; 20 µM in series [4]; greater than 100 µM in series [5].
Compound `NC(=O)c1ncn(CCN2CCOCC2)c1C(N)=O` [Compound 5, 1-(2-Morpholin-4-yl-ethyl)-1H-imidazole-4,5-dicarboxylic acid diamide] registered a melting point of 196 to 197 °C. The IC50 in series [1] is 32 µM. Moreover, in series [2], the IC50 is greater than 100 µM. In series [3], the “Cytotoxicity” value was “no concomitant cytotoxic effects” and the half-maximal inhibitory concentration (IC50) is greater than 100 µM. Further, in series [4], the IC50 was greater than 100 µM. In series [5], the IC50 is greater than 100 µM.
The compound `N=c1[nH]c(=O)c2ncn(CCN3CCOCC3)c2c(=O)[nH]1` [Compound 9, 6-Imino-1-(2-morpholin-4-yl-ethyl)-6,7-dihydro-1H,5H-1,3,5,7-tetraaza-azulene-4,8-dione] returned a melting point greater than 300 °C. For the same compound, the IC50 in series [1] was greater than 100 µM. For the same compound, the IC50 in series [2] was greater than 100 µM. Moreover, the IC50 in series [3] is greater than 100 µM. For the same compound, in series [4], the IC50 was greater than 100 µM. In series [5], the IC50 is greater than 100 µM.
In the case of `COC(=O)c1ncn(CCN2CCOCC2)c1C(=O)OC` [Compound 1, 1-(2-Morpholin-4-yl-ethyl)-1H-imidazole-4,5-dicarboxylic acid dimethyl ester], the IC50 was 24 µM in series [1]; greater than 100 µM in series [2]; greater than 100 µM in series [3]; greater than 100 µM in series [4]; greater than 100 µM in series [5]. Moreover, in series [3], the “Cytotoxicity” value was “no concomitant cytotoxic effects”.
